For one data set, the target named is cdk2/cyclinA (Homo sapiens, UniProt P24941). Kind of data set: Cyclin-dependent kinase assay cdk2/cyclinA. The data set is classed as biochemical. The method, then:
(§1) Cyclin-Dependent Kinase Assays (cdk2/cyclinE, cdk2/cyclinA, cdc2/cyclinB)
(§2) All components except the ATP were added to the wells, and the plate was placed on a plate mixer for 2 minutes. The reaction was begun by addition of [^32P]ATP, and the plate was incubated at 25° C. for 15 minutes. The reaction was terminated by addition of 0.1 mL of 20% TCA. The plate was kept at 4° C. for at least 1 hour to allow the substrate to precipitate. The wells were then washed five times with 0.2 mL of 10% TCA and ^32P incorporation determined with a beta plate counter (Wallac Inc., Gaithersburg, Md.).

The next data set has as its target T1, c-Src (Homo sapiens, UniProt P12931).
T1 construct: made in house; host or cells: baculovirus infected insect cells
The data set is described as follows: c-Src kinase assay. Conditions: 5 μM ATP, poly GluTyr substrate. Type of data set: biochemical. The method, then:
Several of the invention compounds have been evaluated in a standard assay to measure their ability to inhibit cellular Src protein kinase (c-Src). […] The assay was carried out as follows:
c-Src kinase was purified from baculovirus infected insect cell lysates using an antipeptide monoclonal antibody directed against the N-terminal amino acids (amino acids 2-17) of c-Src. The antibody, covalently linked to 0.65 μm latex beads, was added to a suspension of insect cell lysis buffer comprised of 150 mM NaCl, 50 mM Tris pH 7.5, 1 mM DTT, 1% NP-40, 2 mM EGTA, 1 mM sodium vanadate, 1 mM PMSF, 1 μg/mL each of leupeptin, pepstatin, and aprotinin. Insect cell lysate containing c-Src protein was incubated with these beads for 3 to 4 hours at 4° C. with rotation. At the end of the lysate incubation, the beads were rinsed three times in lysis buffer, resuspended in lysis buffer containing 10% glycerol, and frozen. These latex beads were thawed, rinsed three times in assay buffer (40 mM Tris, pH 7.5, 5 mM […]) and suspended in the same buffer. In a Millipore 96-well plate with a 0.65 μm polyvinylidine membrane bottom were added the reaction components: 10 μL c-Src beads, 10 μL of 2.5 mg/mL poly GluTyr substrate, 5 μM ATP containing 0.2 μCi labeled ^32P-ATP, 5 μL DMSO containing inhibitors or as a solvent control, and buffer to make the final volume 125 μL. The reaction was started at room temperature by addition of the ATP and quenched 10 minutes later by the addition of 125 μL of 30% TCA, 0.1 M sodium pyrophosphate for 5 minutes on ice. The plate was then filtered and the wells washed with two […] aliquots of 15% TCA, 0.1 M pyrophosphate. The filters were then punched, counted in a liquid scintillation counter, and the data examined for inhibitory activity in comparison to a known inhibitor such as erbstatin. The method is also described in J. Med. Chem., 1994; 37:598-609. Tables 5 and 6 list c-Src inhibitory concentrations (IC50) for representative invention compounds.

The next data set addresses cdc2/cyclinB (Homo sapiens, UniProt P06493). The data set is described as follows: Cyclin-dependent kinase assay cdc2/cyclinB (cdk1/B). The data set is classed as biochemical. The method, then: as §1, §2
In a further data set the target is cdk4/D (Homo sapiens, UniProt P11802). The data set is described as follows: Cyclin-Dependent Kinase 4 (cdk4) enzyme assay, 32P incorporation. Conditions: 25 μM ATP, retinoblastoma substrate. Type of data set: biochemical. The method, then:
A typical assay, for instance, measures inhibitory activity against the cyclin D dependent kinase 4 enzyme (cdk4/D). […] The cdk4 assay was carried out as follows.
Cyclin-Dependent Kinase 4 (cdk4) Assay
Enzyme assays for IC50 determinations (Tables 1 and 2) and kinetic evaluation were performed in 96 well filter plates (Millipore MADVN6550). The total volume was 0.1 mL containing a final concentration of 20 mM TRIS (tris[hydroxymethyl]aminomethane), at pH 7.4, 50 mM NaCl, 1 mM dithiothreitol, 10 mM MgCl2, 25 μM ATP containing 0.25 μCi of [^32P]ATP, 20 ng of cdk4, 1 μg of retinoblastoma, and appropriate dilutions of a compound of the present invention. All components except the ATP were added to the wells, and the plate was placed on a plate mixer for 2 minutes. The reaction was started by adding [^32P]ATP and the plate was incubated at 25° C. for 15 minutes. The reaction was terminated by addition of 0.1 mL of 20% trichloroacetic acid (TCA). The plate was kept at 4° C. for at least 1 hour to allow the substrate to precipitate. The wells were then washed five times with 0.2 mL of 10% TCA and ^32p incorporation was determined with a beta plate counter (Wallac Inc., Gaithersburg. MD).

Another data set has as its target cdk2/cyclinE (Homo sapiens, UniProt P24941). Kind of data set: Cyclin-dependent kinase assay cdk2/cyclinE. Conditions: read-out: cdk2/E IC50. The data set is classed as biochemical. The method, then:
as §1, §2

Data set [1] concerns the target T2, PDGF-β receptor tyrosine kinase (Mus musculus, UniProt P05622).
T2 construct: amplify a fragment of DNA that codes for the intracellular tyrosine kinase domain; made in house; host or cells: SF9 insect cells (baculovirus)
The data set is described as follows: PDGF receptor tyrosine kinase assay. Type of data set: biochemical. Conditions: intracellular tyrosine kinase domain, SF9 lysate. The method, then:
(§3) The assays used to determine these activities were carried out as follows:
(§4) PDGF and FGF Receptor Tyrosine Kinase Assays
(§5) PCR primers were designed to amplify a fragment of DNA that codes for the intracellular tyrosine kinase domain. The fragment was inserted into a baculovirus vector, cotransfected with AcMNPV DNA, and the recombinant virus isolated. SF9 insect cells were infected with the virus to overexpress the protein, and the cell lysate was used for the assay. Assays were performed in 96-well plates (100 μL/incubation/well), and conditions were optimized to measure the incorporation of ^32P from γ^32P-ATP into a glutamate-tyrosine co-polymer substrate. Briefly, to each well was added 82.5 μL of incubation buffer containing 25 mM Hepes (pH 7.0), 150 mM NaCl, 0.1% Triton X-100, 0.2 mM PMSF, 0.2 mM Na3VO4, 10 mM MnCl2, and 750 μg/mL of Poly (4:1) glutamate-tyrosine followed by 2.5 μL of inhibitor and 5 μL of enzyme lysate (7.5 μg/μL FGF-TK or 6.0 μg/μL PDGF-TK) to initiate the reaction. Following a 10 minute incubation at 25° C., […] of γ^32P-ATP (0.4 μCi plus 50 μM ATP) was added to each well, and samples were incubated for an additional 10 minutes at 25° C. […] Nonspecific activity was defined as radioactivity retained on the filters following incubation of samples with buffer alone (no enzyme). […]

Data set [2] deals with T3, FGF-1 (flg) receptor tyrosine kinase (Homo sapiens, UniProt P11362).
T3 construct: amplify a fragment of DNA that codes for the intracellular tyrosine kinase domain; made in house; host or cells: SF9 insect cells (baculovirus)
T3 sequence (P11362 478-767 limits assumed): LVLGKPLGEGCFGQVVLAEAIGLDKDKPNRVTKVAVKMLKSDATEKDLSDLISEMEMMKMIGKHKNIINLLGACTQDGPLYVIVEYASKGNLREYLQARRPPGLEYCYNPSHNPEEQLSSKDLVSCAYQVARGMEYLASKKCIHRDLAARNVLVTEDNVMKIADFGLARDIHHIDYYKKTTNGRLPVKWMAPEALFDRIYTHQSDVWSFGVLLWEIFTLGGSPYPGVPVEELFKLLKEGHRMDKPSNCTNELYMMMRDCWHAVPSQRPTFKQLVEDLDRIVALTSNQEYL
The data set is described as follows: FGF receptor tyrosine kinase assay. The data set is classed as biochemical. Particulars: intracellular tyrosine kinase domain, SF9 lysate. The method, then: as §3, §4, §5

Structures are written as SMILES.

T1 sequence (P12931 whole entry, species assumed): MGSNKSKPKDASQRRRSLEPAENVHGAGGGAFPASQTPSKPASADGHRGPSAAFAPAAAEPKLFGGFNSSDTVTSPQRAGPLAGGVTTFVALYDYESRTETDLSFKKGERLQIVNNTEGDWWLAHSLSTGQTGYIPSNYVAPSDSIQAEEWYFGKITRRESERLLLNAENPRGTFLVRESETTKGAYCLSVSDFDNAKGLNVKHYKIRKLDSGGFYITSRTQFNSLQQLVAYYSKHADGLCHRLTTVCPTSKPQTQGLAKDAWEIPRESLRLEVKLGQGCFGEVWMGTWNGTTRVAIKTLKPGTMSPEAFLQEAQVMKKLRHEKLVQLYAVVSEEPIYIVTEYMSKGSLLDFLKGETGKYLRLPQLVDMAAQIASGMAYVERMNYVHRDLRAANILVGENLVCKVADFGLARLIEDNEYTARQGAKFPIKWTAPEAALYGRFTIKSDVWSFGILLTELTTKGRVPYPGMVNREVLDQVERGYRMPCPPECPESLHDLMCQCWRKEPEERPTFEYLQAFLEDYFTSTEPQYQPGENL
Chain of cdk4/D (P11802 whole entry, species assumed): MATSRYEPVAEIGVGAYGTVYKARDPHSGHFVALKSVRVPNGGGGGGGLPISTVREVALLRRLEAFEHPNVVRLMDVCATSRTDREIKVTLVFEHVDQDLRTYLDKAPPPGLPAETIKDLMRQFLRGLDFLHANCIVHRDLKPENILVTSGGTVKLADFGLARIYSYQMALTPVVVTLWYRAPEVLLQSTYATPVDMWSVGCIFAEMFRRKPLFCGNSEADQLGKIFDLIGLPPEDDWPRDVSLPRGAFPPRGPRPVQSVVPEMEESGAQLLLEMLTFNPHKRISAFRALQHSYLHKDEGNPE
Chain of cdk4/D (P24385 whole entry partner, species assumed): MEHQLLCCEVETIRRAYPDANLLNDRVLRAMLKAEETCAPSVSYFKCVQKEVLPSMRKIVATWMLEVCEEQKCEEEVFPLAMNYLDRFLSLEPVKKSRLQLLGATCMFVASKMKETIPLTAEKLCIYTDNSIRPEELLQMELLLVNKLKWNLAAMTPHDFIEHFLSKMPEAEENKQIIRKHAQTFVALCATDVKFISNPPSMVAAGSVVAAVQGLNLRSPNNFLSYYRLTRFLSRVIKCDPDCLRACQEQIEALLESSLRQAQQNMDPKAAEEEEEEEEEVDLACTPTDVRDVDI
Chain of cdc2/cyclinB (P06493 whole entry, species assumed): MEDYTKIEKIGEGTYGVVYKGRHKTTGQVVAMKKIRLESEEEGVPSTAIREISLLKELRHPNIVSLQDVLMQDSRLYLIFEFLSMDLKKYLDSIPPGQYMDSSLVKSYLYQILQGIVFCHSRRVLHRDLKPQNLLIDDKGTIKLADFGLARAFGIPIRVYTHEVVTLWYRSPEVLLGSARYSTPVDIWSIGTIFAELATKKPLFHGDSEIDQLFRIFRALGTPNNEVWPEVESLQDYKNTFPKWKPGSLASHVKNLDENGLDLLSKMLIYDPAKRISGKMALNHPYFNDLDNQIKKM
Chain of cdc2/cyclinB (P14635 whole entry partner, species assumed): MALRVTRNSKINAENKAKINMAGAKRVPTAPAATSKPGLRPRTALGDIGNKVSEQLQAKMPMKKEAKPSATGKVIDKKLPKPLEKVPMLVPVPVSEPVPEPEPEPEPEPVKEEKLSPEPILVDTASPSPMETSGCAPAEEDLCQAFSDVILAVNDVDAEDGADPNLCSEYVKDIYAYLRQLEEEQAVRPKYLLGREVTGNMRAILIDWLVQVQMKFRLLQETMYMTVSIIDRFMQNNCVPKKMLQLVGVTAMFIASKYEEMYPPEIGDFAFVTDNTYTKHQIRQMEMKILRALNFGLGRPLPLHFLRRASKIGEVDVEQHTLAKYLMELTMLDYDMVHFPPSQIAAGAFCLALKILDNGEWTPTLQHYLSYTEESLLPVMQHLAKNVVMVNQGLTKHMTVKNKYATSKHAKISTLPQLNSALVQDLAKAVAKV
T2 sequence (P05622 599-961 limits assumed): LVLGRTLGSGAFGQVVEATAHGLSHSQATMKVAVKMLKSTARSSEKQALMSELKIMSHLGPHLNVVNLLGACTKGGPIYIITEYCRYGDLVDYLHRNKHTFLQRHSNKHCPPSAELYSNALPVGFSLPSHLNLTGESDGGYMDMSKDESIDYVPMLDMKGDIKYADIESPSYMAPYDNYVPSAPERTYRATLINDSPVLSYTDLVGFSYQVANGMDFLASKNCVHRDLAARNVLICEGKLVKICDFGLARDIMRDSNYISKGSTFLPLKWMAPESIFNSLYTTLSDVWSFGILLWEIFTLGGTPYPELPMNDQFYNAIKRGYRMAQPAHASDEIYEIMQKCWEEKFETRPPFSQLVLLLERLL

Take `CN(C)C1CCN(c2ccc(Nc3ncc4c(n3)N(C3CCCC3)C(=O)NC4)cc2)CC1` [Example 17, 1-Cyclopentyl-7-{4-[4-(dimethylamino)piperidin-1-yl]phenylamino}-3,4-dihydro-pyrimido[4,5-d]pyrimidin-2(1H)-one]: the melting point (commonly the temperature of the solid-liquid transition) is > 200 °C (dec.). The molecule also yielded an IC50 at cdk2/cyclinA of 1310 nM. On c-Src, this molecule displayed an IC50 of 370 nM. Moreover, the IC50 against cdc2/cyclinB was 20200 nM. At cdk4/D, the IC50 was found to be 310 nM. For the same molecule, on cdk2/cyclinE, the IC50 came to 3550 nM. The molecule further returned an IC50 in data set [1] of 320 nM.

As for `O=C1NCc2cnc(Nc3ccc(N4CCC(CCN5CCOCC5)CC4)cc3)nc2N1C1CCCC1` [Example 21], the IC50 at cdk2/cyclinA was found to be 1370 nM; on c-Src it was 1600 nM; at cdc2/cyclinB, 36100 nM; on cdk4/D, 165 nM; on cdk2/cyclinE, 3000 nM; in data set [1], 1100 nM.

Take `CN1CCN(c2ccc(Nc3ncc4c(n3)N(C3CC5CCC3C5)C(=O)NC4)cc2)CC1` (stereo not drawn) [Example 27, 1-Bicyclo[2.2.1]hept-2-yl-7-[4-(4-methylpiperazin-1-yl)phenylamino]-3,4-dihydro-pyrimido[4,5-d]pyrimidin-2(1H)-one (exo)]: the melting point was 251 to 254 °C (dec.). The molecule also showed an IC50 on cdk2/cyclinA of 530 nM. The IC50 against cdc2/cyclinB worked out at 9770 nM. Further, on cdk4/D, the IC50 is 770 nM. Further, the IC50 at cdk2/cyclinE came to 1100 nM.

For the molecule `CC(C)n1c(=O)ncc2cnc(Nc3ccc(N4CCC(CCCN5CCOCC5)CC4)cc3)nc21` [Example 43, 1-Isopropyl-7-{4-[4-(3-(morpholin-4-yl)propyl)piperidin-1-yl]phenylamino}-pyrimido[4,5-d]pyrimidin-2(1H)-one], the IC50 is 7490 nM on cdk2/cyclinA; > 40000 nM on cdc2/cyclinB; 540 nM at cdk4/D; 38000 nM on cdk2/cyclinE; 4930 nM in data set [2].

With `CN1CCN(c2ccc(Nc3ncc4cnc(=O)n(C5CC6CCC5C6)c4n3)cc2)CC1` (stereo not drawn) [Example 44, 1-Bicyclo [2.2.1]hept-2-yl-7-[4-(4-methylpiperazin-1-yl)phenylamino]-pyrimido[4,5-d]pyrimidin-2(1H)-one, exo], the melting point was > 210 °C (dec.). The molecule further returned an IC50 on cdk2/cyclinA of 1030 nM. For the same molecule, the IC50 against c-Src came to 2300 nM. The molecule also displayed an IC50 on cdc2/cyclinB of 7360 nM. Also, the IC50 on cdk4/D came to 18 nM. Besides, at cdk2/cyclinE, the IC50 was 1200 nM. Moreover, the IC50 in data set [2] amounted to 470 nM.
